In patent US7442703B2, “Piperidine derivatives useful as CCR5 antagonists” (priority 2001, dated 2008):
pIC50: −log10 of the molar value. Structures can show the parent of a compound that is named as a salt.

Test system: not given
Assay: not given
Conditions: not given

SMILES | melting point
CCCN(c1cccc2cccnc12)C1CCN(C2(C)CCN(C(=O)c3c(C)ncnc3C)CC2)CC1 (as salt: HCl) [Compound 110] | 181 °C (dec.)
Cc1ncnc(C)c1C(=O)N1CCC(C)(N2CCC(N(c3ccccc3)c3ccc(C(F)(F)F)nc3)CC2)CC1 (as salt: HCl) [Compound 69] | 189 to 193 °C
Cc1ncnc(C)c1C(=O)N1CCC(C)(N2CCC(N(Cc3ccccc3)c3ccncc3)CC2)CC1 (as salt: HCl) [Compound 108] | 182 to 189 °C
Cc1ncnc(C)c1C(=O)N1CCC(C)(N2CCC(N(Cc3ccccc3)C3CCCN(S(=O)(=O)C4CC4)C3)CC2)CC1 (stereo not shown) (as salt: HCl) [Compound 112] | 190 to 195 °C
Cc1ncnc(C)c1C(=O)N1CCC(C)(N2CCC(N(C)c3ccc(Cl)c4cccnc34)CC2)CC1 (as salt: HCl) | 164 to 167 °C (dec.)
Cc1ncnc(C)c1C(=O)N1CCC(C)(N2CCC(N(Cc3ccccc3)c3ccc(Br)cc3)CC2)CC1 (as salt: HCl) | 168 to 170 °C

Test system: HIV-1 luciferase reporter virus in U87-CD4-CCR5 cells
Assay: HIV Replication (luciferase) assay
Assay type: cell-based
Conditions: Human immunodeficiency virus 1, U87/CD4/CCR5
Experimental: Luciferase Replication Assay:
Plasmids encoding the full length genome of HIV-1 pNL-4-Luc with the gp120 V-3 loop replaced by the Bgl II fragment of HIV-1 ADA, YU-2 or HxB (ADA-Luc-FL, YU-2-Luc-FL and HxB-Luc-FL) are obtained from Dr. Susan Pontow (Washington University, St. Louis Mo.). Replication-competent luciferase reporter virus stocks are generated by transfection of plasmids into 293T cells using Superfect (Qiagen) or Mirus transfection reagents. Viral stocks are collected 48 hours following transfection and titered for luciferase production on U-87-CCR5 or CXCR4 cells. U87-CD4-CCR5 cells (10^4/well) are plated in 96-well cell culture plates and incubated overnight. Media is removed and replaced with 50 μl of fresh culture media (DMEM, 10% FCS) and 50 μl of compound diluted in culture medium. Cells are incubated with compound at 37° C. for 1 hour. The resultant supernatant is removed and replaced with 20 μl of media containing compound and infected with an equal volume of diluted or undiluted virus stock at 37° C. for 3-4 hours. The cells are washed once with DMEM, and 200 μl of media containing compound is added. The cultures are incubated for 3 days, the cells lysed in luciferase lysis buffer (Promega, Madison, Wis.) and transferred to Immulon plates (Dynex Technologies, Chantilly Va.). An equal volume of luciferase substrate (Promega, Madison Wis.) is added to lysates and the plates read immediately in a Wallac Luminometer. Fifty and ninety percent inhibitory concentrations are determined using GraphPad PRISM software.

SMILES | pIC50
Cc1ncnc(C)c1C(=O)N1CCC(C)(N2CCC(N(Cc3ccccc3)c3ccncc3)CC2)CC1 [Compound 108] | 9.10
Cc1ncnc(C)c1C(=O)N1CCC(C)(N2CCC(N(Cc3ccccc3)C3CCCN(S(=O)(=O)C4CC4)C3)CC2)CC1 (stereo not shown) [Compound 112] | 7.52

Same assay, conditions: Human immunodeficiency virus 1, U87/CD4/CCR5, read-out: HIV Replication (luciferase) IC50

SMILES | pIC50
Cc1ncnc(C)c1C(=O)N1CCC(C)(N2CCC(N(Cc3ccncc3)c3ccc(Br)cc3)CC2)CC1 [Compound 88] | 8.30
Cc1ncnc(C)c1C(=O)N1CCC(C)(N2CCC(N(Cc3ccccc3)c3cccc(C(=O)NCCO)c3)CC2)CC1 [Compound 67] | 8.22
COc1ccc(N(Cc2ccccc2)C2CCN(C3(C)CCN(C(=O)c4c(C)ncnc4C)CC3)CC2)cc1 [Compound 37] | 10.00
Cc1ncnc(C)c1C(=O)N1CCC(C)(N2CCC(N(c3ccccc3)c3ccccn3)CC2)CC1 [Compound 77] | 8.15
Cc1ncnc(C)c1C(=O)N1CCC(C)(N2CCC(N(Cc3ccccc3)C3CCN(S(C)(=O)=O)CC3)CC2)CC1 [Compound 2] | 9.10
COCCN(c1ccc(Br)cc1)C1CCN(C2(C)CCN(C(=O)c3c(C)ncnc3C)CC2)CC1 [Compound 103] | 8.70
Cc1ncnc(C)c1C(=O)N1CCC(C)(N2CCC(N(Cc3ccccn3)c3ccccc3)CC2)CC1 [Compound 90] | 8.47
Cc1ncnc(C)c1C(=O)N1CCC(C)(N2CCC(N(Cc3ccccc3)c3cc(F)cc(F)c3)CC2)CC1 [Compound 36] | 10.00
Cc1ncnc(C)c1C(=O)N1CCC(C)(N2CCC(N(Cc3ccccn3)c3ccc(Br)cc3)CC2)CC1 [Compound 89] | 9.10
COc1cccc(N(c2ccccc2)C2CCN(C3(C)CCN(C(=O)c4c(C)ncnc4C)CC3)CC2)c1 [Compound 94] | 9.00
Cc1ncnc(C)c1C(=O)N1CCC(C)(N2CCC(N(Cc3ccccc3)c3cccc(OC(F)(F)F)c3)CC2)CC1 [Compound 24] | 9.70
Cc1ncnc(C)c1C(=O)N1CCC(C)(N2CCC(N(Cc3ccccc3)c3ccn(Cc4ccccc4)n3)CC2)CC1 [Compound 46] | 8.70
Cc1ncnc(C)c1C(=O)N1CCC(C)(N2CCC(N(Cc3ccccc3)c3ccc(CCNS(=O)(=O)C4CC4)cc3)CC2)CC1 [Compound 56] | 9.70
Cc1ncnc(C)c1C(=O)N1CCC(C)(N2CCC(N(Cc3ccccc3)c3ccc(CCN)cc3)CC2)CC1 [Compound 55] | 8.46
CCc1ccc(N(Cc2ccccc2)C2CCN(C3(C)CCN(C(=O)c4c(C)ncnc4C)CC3)CC2)cc1 [Compound 41] | > 10.00
Cc1ncnc(C)c1C(=O)N1CCC(C)(N2CCC(N(Cc3ccccc3)c3ccc(N4CCOCC4)cc3)CC2)CC1 [Compound 45] | 9.05
Cc1ncnc(C)c1C(=O)N1CCC(C)(N2CCC(N(CC3CCCCC3)c3ccc(Br)cc3)CC2)CC1 [Compound 98] | 8.70
CC(=O)NCCc1ccc(N(Cc2ccccc2)C2CCN(C3(C)CCN(C(=O)c4c(C)ncnc4C)CC3)CC2)cc1 [Compound 49] | 9.40
Cc1ncnc(C)c1C(=O)N1CCC(C)(N2CCC(N(Cc3ccccc3)c3ccc(Br)c(C(F)(F)F)c3)CC2)CC1 [Compound 38] | 8.52
Cc1ncnc(C)c1C(=O)N1CCC(C)(N2CCC(N(Cc3ccccc3)c3cccc(C(=O)O)c3)CC2)CC1 [Compound 59] | 8.40
Cc1ncnc(C)c1C(=O)N1CCC(C)(N2CCC(N(c3ccccc3)c3cc(Cl)cc(Cl)c3)CC2)CC1 [Compound 92] | 8.39

SMILES | pIC50
Cc1ncnc(C)c1C(=O)N1CCC(C)(N2CCC(N(Cc3ccccc3)c3ccccc3F)CC2)CC1 [Compound 42] | 9.10
Cc1ncnc(C)c1C(=O)N1CCC(C)(N2CCC(N(CC3CC3)C3CCN(S(=O)(=O)c4cccc(Cl)c4)CC3)CC2)CC1 [Compound 3] | 7.49
Cc1ncnc(C)c1C(=O)N1CCC(C)(N2CCC(N(c3ccccc3)c3ccc(Cl)cn3)CC2)CC1 [Compound 78] | 9.00
CCN(CC)C(=O)c1cccc(N(Cc2ccccc2)C2CCN(C3(C)CCN(C(=O)c4c(C)ncnc4C)CC3)CC2)c1 [Compound 63] | 8.22
Cc1ncnc(C)c1C(=O)N1CCC(C)(N2CCC(N(c3ccccc3)c3ccc(F)cc3)CC2)CC1 [Compound 79] | 9.00
Cc1ncnc(C)c1C(=O)N1CCC(C)(N2CCC(N(c3ccccc3)c3ccc(Br)c(C(F)(F)F)c3)CC2)CC1 [Compound 95] | 8.70
Cc1ncnc(C)c1C(=O)N1CCC(C)(N2CCC(N(c3ccccc3)c3cc(F)cc(F)c3)CC2)CC1 [Compound 101] | 10.00
COc1cccc(N(Cc2ccccc2)C2CCN(C3(C)CCN(C(=O)c4c(C)ncnc4C)CC3)CC2)c1 [Compound 33] | 9.28
Cc1ncnc(C)c1C(=O)N1CCC(C)(N2CCC(N(Cc3ccccc3)c3ccc(C(C)C)cc3)CC2)CC1 [Compound 22] | 9.70
Cc1ncnc(C)c1C(=O)N1CCC(C)(N2CCC(N(Cc3ccccc3)c3ccc(Cl)c(C(F)(F)F)c3)CC2)CC1 [Compound 35] | 8.70
Cc1ncnc(C)c1C(=O)N1CCC(C)(N2CCC(N(CC3CC3)c3ccccc3)CC2)CC1 [Compound 74] | 8.00
CCOc1ccc(N(c2ccccc2)C2CCN(C3(C)CCN(C(=O)c4c(C)ncnc4C)CC3)CC2)cc1 [Compound 99] | 9.52
Cc1cc(-c2cc[n+]([O-])cc2)cc(C)c1C(=O)N1CCC(C)(N2CCC(N(c3ccccc3)c3ccc(C(F)(F)F)cn3)CC2)CC1 [Compound 83] | 10.30
Cc1ncnc(C)c1C(=O)N1CCC(C)(N2CCC(N(Cc3ccncc3)c3ccccc3)CC2)CC1 [Compound 86] | 7.12
Cc1ncnc(C)c1C(=O)N1CCC(C)(N2CCC(N(Cc3ccccc3)c3cccc(C(=O)N4CCOCC4)c3)CC2)CC1 [Compound 62] | 8.40
Cc1ncnc(C)c1C(=O)N1CCC(C)(N2CCC(N(c3ccccc3)c3ccc(Cl)cc3)CC2)CC1 [Compound 73] | 9.52
Cc1ncnc(C)c1C(=O)N1CCC(C)(N2CCC(N(Cc3ccccc3)c3ccc(Oc4ccccc4)cc3)CC2)CC1 [Compound 43] | 8.70
Cc1ncnc(C)c1C(=O)N1CCC(C)(N2CCC(N(Cc3ccccc3)c3cccc4cccnc34)CC2)CC1 [Compound 53] | 9.22
Cc1ncnc(C)c1C(=O)N1CCC(C)(N2CCC(N(Cc3ccccc3)c3ccc(OC(F)(F)F)cc3)CC2)CC1 [Compound 11] | 9.70
Cc1ncnc(C)c1C(=O)N1CCC(C)(N2CCC(N(Cc3ccccc3)c3cccc(C(N)=O)c3)CC2)CC1 [Compound 61] | 9.30
